Reference: patent US20230210984A1, “ADOPTIVE IMMUNOTHERAPY” (The Council of the Queensland Institute of Medical Research, priority 2019, published 2023)

What was measured:
Assay type in all cases: cell-based
[1] = test system: SNU719 cells; test: Annexin V binding assay, inhibitor combined with EBV-specific T cells; conditions: combination with EBV-specific T cells (25:1) vs individual treatment, 48 hrs; AZD6244 0.5 μM, trematinib 1.0 μM, JQ1 5.0 μM
Method: We treated SNU719 cells (gastric cancer cells) with MEK1/2 inhibitor (AZD6244 (or selumetanib) and trematinib) at concentration of 0.5 μM and 1.0 μM respectively, as individual treatment or in combination with EBV-specific T cells (25:1) as effector to target ratio.
We treated SNU719 cells with JQ1 inhibitor at concentration of 5.0 μM, as individual treatment or in combination with EBV-specific T cells (25:1) as effector to target ratio.

[2] = test system: C17, C666.1, SNU719 and YCCLE1 cells; test: MTS cell viability, inhibitor combined with HLA matched allogeneic EBV-specific T cells (Example 3); conditions: combination with HLA matched EBV-specific T cells 25:1 vs individual treatment, 48 hrs; MEK1/2 inhibitors 1 μM, JQ1 2.5 μM
Method: The data are represented as the mean±SD from three independent experiments. P-values were calculated using one-way ANOVA: ns=not significant, *=p<0.05, **=p<0.01, ***=p<0.001 and ****=p<0.0001.
The data are represented as the mean±SD from three independent experiments.

[3] = test system: SNU719 and C666.1 cells; test: Xcellegence cell growth curve (Example 3); conditions: dual combination with HLA matched T cells 25:1 vs individual treatment, selumatinib 1 μM, JQ1 2.5 μM
Method: FIG. 11: Impact of dual combination of MEK1/2 inhibitor and HLA matched allogeneic EBV specific T cells. (A) Cell growth curve highlight the rate of cellular proliferation of SNU719 (upper panel) and C666.1 (lower panel) observed in the presence of HLA-matched EBV specific T cells (effector-to-target ratio of 25:1) and selumatinib (1 μM) individually and in combination, measured using Xcellegence. The effect of individual and dual combination on (B) cell proliferation based on Ki67 and (C) cell death based on active Caspase-3 of SNU719 expression (upper panel) and C666.1 (lower panel), performed using flow cytometry. The data are represented as the mean±SD from three independent experiments. P-values were calculated using one-way ANOVA: ns=not significant, *p<0.05, **p<0.01, ***p<0.001 and ****p<0.0001.
FIG. 15: Impact of dual combination of JQ1 inhibitor and HLA matched allogeneic EBV-specific T cells. The cell viability measured by MTS assay highlighting the impact of a HLA-matched EBV specific T cells at the effector-to-target ratio of 25:1 and JQ1 (2.5 μM) in suppressing cellular growth individually and in combination after 48 hrs of incubation with indicated (A) gastric (SNU719, YCCLE1 (upper panel)) and nasopharyngeal cancer cells (C17, C666.1 (lower panel)). […] P-values were calculated using one-way ANOVA: ns=not significant, *p<0.05, **p<0.01, ***p<0.001 and ****p<0.0001. […]

[4] = test system: SNU719 and C666.1 cells; test: MTS cell viability with HLA-mismatched versus HLA-matched T cells and inhibitors; conditions: for effect of HLA-matched vs HLA-mismatched T cells in presence of inhibitor: MEK1/2 inhibitors 1 μM, JQ1 2.5 μM, T cells 25:1; for cell viability: 48 hrs
Method: FIG. 12: Combination of MEK1/2 inhibitors with HLA mismatched allogeneic-specific T cells. […] The data are represented as the mean±SD from three independent experiments. P-values were calculated using one-way ANOVA: ns=not significant, *=p<0.05, **=p<0.01, ***=p<0.001 and ****=p<0.0001.
FIG. 16: Combination of JQ1 inhibitors with HLA mismatched all T cells. […] The data are represented as the mean±SD from three independent experiments. P-values were calculated using one-way ANOVA: ns=not significant, *=p<0.05, **=p<0.01, ***=p<0.001 and ****=p<0.0001.
Next, we wanted to determine the specificity of the combination and as such we challenged SNU719 and C666.1 cells with HLA-mismatched allogeneic T cells alongside MEK1/2 inhibitors (both selumetanib and trematinib), individually and in combination.
Next, we wanted to determine the specificity of the combination and as such we challenged SNU719 and C666.1 cells with HLA-mismatch allogeneic T cells alongside JQ1 inhibitor individually and in combination.

[5] = combination with HLA-mismatch allogeneic T cells 25:1 vs DMSO treated control
[6] = combination with HLA-mismatch allogeneic T cells 25:1 vs inhibitor alone

Structure (SMILES)	binding of Annexin V among SNU719 cells [1]	cell viability [2]	rate of cell death (Xcellegence) [3]	effect of HLA-matched vs HLA-mismatched T cells in presence of inhibitor [4]	cell viability [4, 5]	cell viability [4, 6]
Cc1sc2c(c1C)C(c1ccc(Cl)cc1)=N[C@@H](CC(=O)OC(C)(C)C)c1nnc(C)n1-2 [JQ1]	significantly higher binding of Annexin V	significantly reduced	faster cell death	significantly amplified	significant reduction in cell viability	no significant reduction in cell viability
Cn1cnc2c(F)c(Nc3ccc(Br)cc3Cl)c(C(=O)NOCCO)cc21 [selumetanib]	significantly higher binding of Annexin V	significantly reduced	faster cell death	significantly amplified	significant reduction in cell viability	no significant reduction in cell viability
